Literature values, collected in patent US6323203A, “Composition and method for treating diabetes” (Beyer; Camille F., priority 2000, dated 2001).

Assays:
[1] = system: nicotinic acid vasomotor and antilipolytic effect; details: cited from earlier work; for effect on vasomotor and antilipolytic effect of nicotinic acid: prior administration of the prostaglandin synthesis inhibitor
[2] = oral glucose tolerance test; cited from earlier work
[3] = in vivo; cited from earlier work

## CC(=O)Oc1ccccc1C(=O)O [aspirin]
[1]
  effect on vasomotor and antilipolytic effect of nicotinic acid: abolish the vasomotor, but not the antilipolytic effect of nicotinic acid

## NS(=O)(=O)c1cc2c(cc1Cl)NCNS2(=O)=O [hydrochlorothiazide]
[2]
  effect on serum glucose and insulin: increased serum glucose and insulin concentrations
[3]
  effect on potassium: kaliuresis

## COc1ccc2c(c1)c(CC(=O)O)c(C)n2C(=O)c1ccc(Cl)cc1 [indomethacin]
[1]
  effect on vasomotor and antilipolytic effect of nicotinic acid: abolish the vasomotor, but not the antilipolytic effect of nicotinic acid

## O=C(O)c1cccnc1 [nicotinic acid]
[1]; Molnar 1964
  use in diabetics: contraindicated for diabetics
[1]; in vivo
  effect on triglyceride hydrolysis to FFA and glycerol: inhibits triglyceride hydrolysis to FFA and glycerol
[1]; nicotinic acid prescribed in patient care
  cutaneous vasomotor reaction of nicotinic acid, consequence in patient care: sufficiently undesirable as to be the principal cause for lack of compliance
[1]; nicotinic acid
  effect on blush area: transiently stimulate
  effect on plasma concentrations of nonesterified fatty acids: reduce
  onset of cutaneous reaction relative to peak serum concentration: the onset preceded peak serum PZA concentrations, as is the case also for the cutaneous reactions associated with nicotinic acid
